From ChEMBL document CHEMBL1139487, “Discovery of corticotropin releasing factor 2 receptor selective sauvagine analogues for treatment of skeletal muscle atrophy” (J Med Chem, 2005)
Square brackets hold non-standard residues; d marks the D form. Peptide text beside a SMILES is read from it. pGlu = O=C1CC[C@@H](C(=O)O)N1

Assays:
[1] = target: Corticotropin-releasing factor receptor 2 (Mus musculus) (UniProt Q60748); assay: In vitro agonistic activity against mouse corticotropin releasing factor 2 receptor; assay type: functional
Mus musculus = species on record: Mus musculus; assay: Selectivity ratio of EC50s for mouse corticotropin releasing factor receptors 1 and 2
[2] = target: T1, Corticotropin-releasing factor receptor 1 (Mus musculus) (UniProt P35347); assay: In vitro agonistic activity against mouse corticotropin releasing factor 1 receptor; assay type: functional
T1 sequence (whole entry): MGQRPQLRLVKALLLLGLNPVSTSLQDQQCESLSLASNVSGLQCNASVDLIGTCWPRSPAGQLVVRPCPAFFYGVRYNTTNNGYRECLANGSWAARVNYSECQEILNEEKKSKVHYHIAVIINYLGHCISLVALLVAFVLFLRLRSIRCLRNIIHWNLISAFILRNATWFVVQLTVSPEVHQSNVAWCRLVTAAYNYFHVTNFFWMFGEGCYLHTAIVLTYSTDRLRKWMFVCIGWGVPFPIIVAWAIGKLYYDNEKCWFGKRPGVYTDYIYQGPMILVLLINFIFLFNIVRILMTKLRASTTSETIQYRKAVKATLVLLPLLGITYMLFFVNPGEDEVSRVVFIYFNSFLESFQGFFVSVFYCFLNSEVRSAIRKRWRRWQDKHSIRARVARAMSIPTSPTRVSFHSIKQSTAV

Chain of Corticotropin-releasing factor receptor 2 (Mus musculus) (Q60748 whole entry): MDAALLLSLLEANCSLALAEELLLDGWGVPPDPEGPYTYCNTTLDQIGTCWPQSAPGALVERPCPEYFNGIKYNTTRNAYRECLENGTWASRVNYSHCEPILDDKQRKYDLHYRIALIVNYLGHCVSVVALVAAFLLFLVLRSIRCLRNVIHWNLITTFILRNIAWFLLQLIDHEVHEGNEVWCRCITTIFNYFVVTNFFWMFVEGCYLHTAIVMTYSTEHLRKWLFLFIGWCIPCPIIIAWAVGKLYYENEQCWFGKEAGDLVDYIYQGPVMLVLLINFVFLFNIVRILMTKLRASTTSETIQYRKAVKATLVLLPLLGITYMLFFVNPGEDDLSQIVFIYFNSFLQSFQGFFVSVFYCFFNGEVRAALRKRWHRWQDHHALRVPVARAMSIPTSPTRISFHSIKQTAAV

CC[C@H](C)[C@H](NC(=O)[C@@H](NC(=O)[C@H](CC(=O)O)NC(=O)[C@H](CC(C)C)NC(=O)[C@H](CC(C)C)NC(=O)[C@H](CC(C)C)NC(=O)[C@H](CCCN=C(N)N)NC(=O)[C@H](CC(N)=O)NC(=O)[C@H](CC(N)=O)NC(=O)[C@H](C)NC(=O)[C@H](C)NC(=O)[C@H](CCC(N)=O)NC(=O)[C@H](CCC(N)=O)NC(=O)[C@H](CCCCN)NC(=O)[C@H](CCC(=O)O)NC(=O)[C@H](CCCCN)NC(=O)[C@H](CCC(=O)O)NC(=O)[C@H](CCC(N)=O)NC(=O)[C@H](CCCCN)NC(=O)[C@H](CCC(=O)O)NC(=O)[C@@H](NC(=O)[C@H](CCC(=O)O)NC(=O)[C@@H](NC(=O)[C@H](CCSC)NC(=O)[C@H](CCCCN)NC(=O)[C@H](CCCN=C(N)N)NC(=O)[C@H](CC(C)C)NC(=O)[C@H](CC(C)C)NC(=O)[C@H](CC(C)C)NC(=O)[C@H](CC(C)C)NC(=O)[C@@H]1CCCN1C(=O)[C@H](CC(C)C)NC(=O)[C@H](CC(=O)O)NC(=O)[C@@H](NC(=O)[C@H](CO)NC(=O)[C@@H](NC(=O)[C@@H]1CCCN1C(=O)[C@@H]1CCCN1C(=O)CNC(=O)[C@@H]1CCC(=O)N1)[C@@H](C)CC)[C@@H](C)CC)[C@@H](C)CC)[C@@H](C)CC)[C@@H](C)O)C(=O)O
Emax [1]: 100%
Selectivity (Mus musculus): 22
Emax [2]: 96%

CC[C@H](C)[C@H](NC(=O)[C@@H](NC(=O)[C@H](CC(=O)O)NC(=O)[C@H](CC(C)C)NC(=O)[C@H](CC(C)C)NC(=O)[C@H](CC(C)C)NC(=O)[C@H](CCCN=C(N)N)NC(=O)[C@H](CC(N)=O)NC(=O)[C@H](CC(N)=O)NC(=O)[C@H](C)NC(=O)[C@H](C)NC(=O)[C@H](CCC(N)=O)NC(=O)[C@H](CCC(N)=O)NC(=O)[C@H](CCCCN)NC(=O)[C@H](CCC(=O)O)NC(=O)[C@H](CCCCN)NC(=O)[C@H](CCC(=O)O)NC(=O)[C@H](CCC(N)=O)NC(=O)[C@H](CCCCN)NC(=O)[C@H](CCC(=O)O)NC(=O)[C@@H](NC(=O)[C@H](CCC(=O)O)NC(=O)[C@@H](NC(=O)[C@H](CCSC)NC(=O)[C@H](CCCCN)NC(=O)[C@H](CCCN=C(N)N)NC(=O)[C@H](CC(C)C)NC(=O)[C@H](CC(C)C)NC(=O)[C@@H](NC(=O)[C@H](Cc1ccccc1)NC(=O)[C@@H]1CCCN1C(=O)[C@H](CC(C)C)NC(=O)[C@H](CC(=O)O)NC(=O)[C@@H](NC(=O)[C@H](CO)NC(=O)[C@@H](NC(=O)[C@@H]1CCCN1C(=O)[C@@H]1CCCN1C(=O)CNC(=O)[C@@H]1CCC(=O)N1)[C@@H](C)CC)[C@@H](C)CC)C(C)C)[C@@H](C)CC)[C@@H](C)CC)[C@@H](C)O)C(=O)O
Emax [1]: 91%
Selectivity (Mus musculus): 14
Emax [2]: 81%

CC[C@H](C)[C@H](NC(=O)[C@@H](NC(=O)[C@H](CC(=O)O)NC(=O)[C@H](CC(C)C)NC(=O)[C@H](CC(C)C)NC(=O)[C@H](CC(C)C)NC(=O)[C@H](CCCN=C(N)N)NC(=O)[C@H](CC(N)=O)NC(=O)[C@H](CC(N)=O)NC(=O)[C@H](C)NC(=O)[C@H](C)NC(=O)[C@H](CCC(N)=O)NC(=O)[C@H](CCC(N)=O)NC(=O)[C@H](CCCCN)NC(=O)[C@H](CCC(=O)O)NC(=O)[C@H](CCCCN)NC(=O)[C@H](CCC(=O)O)NC(=O)[C@H](CCC(N)=O)NC(=O)[C@H](CCCCN)NC(=O)[C@H](CCC(=O)O)NC(=O)[C@@H](NC(=O)[C@H](CCC(=O)O)NC(=O)[C@@H](NC(=O)[C@H](CCSC)NC(=O)[C@H](CCCCN)NC(=O)[C@H](CCCN=C(N)N)NC(=O)[C@H](CC(C)C)NC(=O)[C@H](CC(C)C)NC(=O)[C@H](CCC(N)=O)NC(=O)[C@H](CCC(N)=O)NC(=O)[C@@H]1CCCN1C(=O)[C@H](CC(C)C)NC(=O)[C@H](CC(=O)O)NC(=O)[C@@H](NC(=O)[C@H](CO)NC(=O)[C@@H](NC(=O)[C@@H]1CCCN1C(=O)[C@@H]1CCCN1C(=O)CNC(=O)[C@@H]1CCC(=O)N1)[C@@H](C)CC)[C@@H](C)CC)[C@@H](C)CC)[C@@H](C)CC)[C@@H](C)O)C(=O)O
Emax [1]: 100%
Selectivity (Mus musculus): 33
Emax [2]: 50%

CC[C@H](C)[C@H](NC(=O)[C@@H](NC(=O)[C@H](CC(=O)O)NC(=O)[C@H](CC(C)C)NC(=O)[C@H](CC(C)C)NC(=O)[C@H](CC(C)C)NC(=O)[C@H](CCCN=C(N)N)NC(=O)[C@H](CC(N)=O)NC(=O)[C@H](CC(N)=O)NC(=O)[C@H](C)NC(=O)[C@H](C)NC(=O)[C@H](CCC(N)=O)NC(=O)[C@H](CCC(N)=O)NC(=O)[C@H](CCCCN)NC(=O)[C@H](CCC(=O)O)NC(=O)[C@H](CCCCN)NC(=O)[C@H](CCC(=O)O)NC(=O)[C@H](CCC(N)=O)NC(=O)[C@H](CCCCN)NC(=O)[C@H](CCC(=O)O)NC(=O)[C@@H](NC(=O)[C@H](CCC(=O)O)NC(=O)[C@@H](NC(=O)[C@H](CCSC)NC(=O)[C@H](CCCCN)NC(=O)[C@H](CCCN=C(N)N)NC(=O)[C@H](CC(C)C)NC(=O)[C@H](CC(C)C)NC(=O)[C@H](Cc1ccc(O)cc1)NC(=O)[C@H](CC(C)C)NC(=O)[C@@H]1CCCN1C(=O)[C@H](CC(C)C)NC(=O)[C@H](CC(=O)O)NC(=O)[C@@H](NC(=O)[C@H](CO)NC(=O)[C@@H](NC(=O)[C@@H]1CCCN1C(=O)[C@@H]1CCCN1C(=O)CNC(=O)[C@@H]1CCC(=O)N1)[C@@H](C)CC)[C@@H](C)CC)[C@@H](C)CC)[C@@H](C)CC)[C@@H](C)O)C(=O)O ([pGlu]GPPISIDLPLYLLRKMIEIEKQEKEKQQAANNRLLLDTI-OH)
Emax [1]: 73%
Selectivity (Mus musculus): 16
Emax [2]: 79%

CC[C@H](C)[C@H](NC(=O)[C@@H](NC(=O)[C@H](CC(=O)O)NC(=O)[C@H](CC(C)C)NC(=O)[C@H](CC(C)C)NC(=O)[C@H](CC(C)C)NC(=O)[C@H](CCCN=C(N)N)NC(=O)[C@H](CC(N)=O)NC(=O)[C@H](CC(N)=O)NC(=O)[C@H](C)NC(=O)[C@H](C)NC(=O)[C@H](CCC(N)=O)NC(=O)[C@H](CCC(N)=O)NC(=O)[C@H](CCCCN)NC(=O)[C@H](CCC(=O)O)NC(=O)[C@H](CCCCN)NC(=O)[C@H](CCC(=O)O)NC(=O)[C@H](CCC(N)=O)NC(=O)[C@H](CCCCN)NC(=O)[C@H](CCC(=O)O)NC(=O)[C@@H](NC(=O)[C@H](CCC(=O)O)NC(=O)[C@@H](NC(=O)[C@H](CCSC)NC(=O)[C@H](CCCCN)NC(=O)[C@H](CCCN=C(N)N)NC(=O)[C@H](CC(C)C)NC(=O)[C@H](CC(C)C)NC(=O)[C@H](Cc1ccccc1)NC(=O)[C@H](Cc1ccc(O)cc1)NC(=O)[C@@H]1CCCN1C(=O)[C@H](CC(C)C)NC(=O)[C@H](CC(=O)O)NC(=O)[C@@H](NC(=O)[C@H](CO)NC(=O)[C@@H](NC(=O)[C@@H]1CCCN1C(=O)[C@@H]1CCCN1C(=O)CNC(=O)[C@@H]1CCC(=O)N1)[C@@H](C)CC)[C@@H](C)CC)[C@@H](C)CC)[C@@H](C)CC)[C@@H](C)O)C(=O)O
Emax [1]: 98%
Selectivity (Mus musculus): 16
Emax [2]: 81%

CC[C@H](C)[C@H](NC(=O)[C@@H](NC(=O)[C@H](CC(=O)O)NC(=O)[C@H](CC(C)C)NC(=O)[C@H](CC(C)C)NC(=O)[C@H](CC(C)C)NC(=O)[C@H](CCCN=C(N)N)NC(=O)[C@H](CC(N)=O)NC(=O)[C@H](CC(N)=O)NC(=O)[C@H](C)NC(=O)[C@H](C)NC(=O)[C@H](CCC(N)=O)NC(=O)[C@H](CCC(N)=O)NC(=O)[C@H](CCCCN)NC(=O)[C@H](CCC(=O)O)NC(=O)[C@H](CCCCN)NC(=O)[C@H](CCC(=O)O)NC(=O)[C@H](CCC(N)=O)NC(=O)[C@H](CCCCN)NC(=O)[C@H](CCC(=O)O)NC(=O)[C@@H](NC(=O)[C@H](CCC(=O)O)NC(=O)[C@@H](NC(=O)[C@H](CCSC)NC(=O)[C@H](CCCCN)NC(=O)[C@H](CCCN=C(N)N)NC(=O)[C@H](CC(C)C)NC(=O)[C@H](CC(C)C)NC(=O)[C@H](Cc1ccc(O)cc1)NC(=O)[C@H](CCC(N)=O)NC(=O)[C@@H]1CCCN1C(=O)[C@H](CC(C)C)NC(=O)[C@H](CC(=O)O)NC(=O)[C@@H](NC(=O)[C@H](CO)NC(=O)[C@@H](NC(=O)[C@@H]1CCCN1C(=O)[C@@H]1CCCN1C(=O)CNC(=O)[C@@H]1CCC(=O)N1)[C@@H](C)CC)[C@@H](C)CC)[C@@H](C)CC)[C@@H](C)CC)[C@@H](C)O)C(=O)O
Emax [1]: 96%
Selectivity (Mus musculus): 30
Emax [2]: 100%

CC[C@H](C)[C@H](NC(=O)[C@@H](NC(=O)[C@H](CC(=O)O)NC(=O)[C@H](CC(C)C)NC(=O)[C@H](CC(C)C)NC(=O)[C@H](CC(C)C)NC(=O)[C@H](CCCN=C(N)N)NC(=O)[C@H](CC(N)=O)NC(=O)[C@H](CC(N)=O)NC(=O)[C@H](C)NC(=O)[C@H](C)NC(=O)[C@H](CCC(N)=O)NC(=O)[C@H](CCC(N)=O)NC(=O)[C@H](CCCCN)NC(=O)[C@H](CCC(=O)O)NC(=O)[C@H](CCCCN)NC(=O)[C@H](CCC(=O)O)NC(=O)[C@H](CCC(N)=O)NC(=O)[C@H](CCCCN)NC(=O)[C@H](CCC(=O)O)NC(=O)[C@@H](NC(=O)[C@H](CCC(=O)O)NC(=O)[C@@H](NC(=O)[C@H](CCSC)NC(=O)[C@H](CCCCN)NC(=O)[C@H](CCCN=C(N)N)NC(=O)[C@H](CC(C)C)NC(=O)[C@H](CC(C)C)NC(=O)[C@@H](NC(=O)[C@H](CC(C)C)NC(=O)[C@@H]1CCCN1C(=O)[C@H](CC(C)C)NC(=O)[C@H](CC(=O)O)NC(=O)[C@@H](NC(=O)[C@H](CO)NC(=O)[C@@H](NC(=O)[C@@H]1CCCN1C(=O)[C@@H]1CCCN1C(=O)CNC(=O)[C@@H]1CCC(=O)N1)[C@@H](C)CC)[C@@H](C)CC)C(C)C)[C@@H](C)CC)[C@@H](C)CC)[C@@H](C)O)C(=O)O
Emax [1]: 94%
Selectivity (Mus musculus): 48
Emax [2]: 95%
